# Values quoted from earlier work in patent US20040126339A1, “Sunscreen composition and methods for manufacturing and using a sunscreen composition” (priority 2002, published 2004).
# Conditions: in vivo
row,Substance,dermal toxicity
1,Poly(vinylpyrrolidone/1-hexadecene) [PVPH],no demonstrable dermal toxicity
2,Poly(vinylpyrrolidone/1-eicosene) [PVPE],no demonstrable dermal toxicity
